The assay deals with T1, mTOR kinase (Homo sapiens, UniProt P42345).
T1 construct: FLAG; made in house
T1 sequence (P42345 1362-2549): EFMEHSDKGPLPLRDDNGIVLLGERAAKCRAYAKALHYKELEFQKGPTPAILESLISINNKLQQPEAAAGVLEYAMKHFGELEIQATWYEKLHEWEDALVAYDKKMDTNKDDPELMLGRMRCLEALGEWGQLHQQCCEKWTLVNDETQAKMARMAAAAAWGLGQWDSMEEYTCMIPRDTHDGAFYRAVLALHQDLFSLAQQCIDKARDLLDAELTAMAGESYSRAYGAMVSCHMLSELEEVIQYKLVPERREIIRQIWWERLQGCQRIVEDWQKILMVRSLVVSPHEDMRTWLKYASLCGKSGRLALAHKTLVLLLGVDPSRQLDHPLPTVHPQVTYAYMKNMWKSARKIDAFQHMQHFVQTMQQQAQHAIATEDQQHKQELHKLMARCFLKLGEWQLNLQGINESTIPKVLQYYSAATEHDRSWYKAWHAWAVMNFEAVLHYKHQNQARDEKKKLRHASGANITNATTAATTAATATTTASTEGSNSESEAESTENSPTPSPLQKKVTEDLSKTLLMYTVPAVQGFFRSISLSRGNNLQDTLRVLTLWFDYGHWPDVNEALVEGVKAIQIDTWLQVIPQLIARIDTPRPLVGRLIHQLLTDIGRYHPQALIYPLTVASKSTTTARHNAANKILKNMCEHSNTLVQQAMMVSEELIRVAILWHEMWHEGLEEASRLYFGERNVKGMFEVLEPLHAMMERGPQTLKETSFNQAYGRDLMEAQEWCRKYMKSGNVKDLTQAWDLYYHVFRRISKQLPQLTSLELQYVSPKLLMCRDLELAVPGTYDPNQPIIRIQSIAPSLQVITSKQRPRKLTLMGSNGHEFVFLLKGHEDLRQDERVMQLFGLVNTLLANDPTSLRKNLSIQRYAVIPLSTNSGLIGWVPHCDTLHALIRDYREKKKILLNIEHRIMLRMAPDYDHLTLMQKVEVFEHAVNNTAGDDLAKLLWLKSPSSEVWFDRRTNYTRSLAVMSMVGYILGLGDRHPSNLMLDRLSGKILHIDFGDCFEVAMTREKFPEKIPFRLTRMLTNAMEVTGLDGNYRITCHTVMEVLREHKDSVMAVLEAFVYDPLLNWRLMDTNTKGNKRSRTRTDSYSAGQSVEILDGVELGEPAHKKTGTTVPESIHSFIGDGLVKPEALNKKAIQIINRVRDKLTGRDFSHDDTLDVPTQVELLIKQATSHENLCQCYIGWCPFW
The experiment in a line: In vitro mTOR kinase assay, Test (a)(i) (AlphaScreen). Conditions: recombinant FLAG-tagged mTOR (1362-2549), ATP 20 μM; read-out: Test (a)(i) IC50. Format: biochemical. As to the method:
(a)(i) In Vitro mTOR Kinase Assay
A C-terminal truncation of mTOR encompassing amino acid residues 1362 to 2549 of mTOR (EMBL Accession No. L34075) was stably expressed as a FLAG-tagged fusion in HEK293 cells as described by Vilella-Bach et al., […], 1999, 274, 4266-4272. The HEK293 FLAG-tagged mTOR (1362-2549) stable cell line was routinely maintained at 37° C. with 5% CO2 up to a confluency of 70-90% in Dulbecco's modified Eagle's growth medium (DMEM; Invitrogen Limited, Paisley, UK Catalogue No. 41966-029) containing 10% heat-inactivated foetal calf serum (FCS; Sigma, Poole, Dorset, UK, Catalogue No. F0392), 1% L-glutamine (Gibco, Catalogue No. 25030-024) and 2 mg/ml Geneticin (G418 sulfate; Invitrogen Limited, UK Catalogue No. 10131-027). Following expression in the mammalian HEK293 cell line, expressed protein was purified using the FLAG epitope tag using standard purification techniques.
A 30 μl mixture of recombinant purified mTOR enzyme, 1 μM biotinylated peptide substrate (Biotin-Ahx-[…]NH2; Bachem UK Ltd), ATP (20 μM) and a buffer solution [comprising Tris-HCl pH7.4 buffer (50 mM), EGTA (0.1 mM), bovine serum albumin (0.5 mg/mL), DTT (1.25 mM) and manganese chloride (10 mM)] was agitated at room temperature for 90 minutes.
These assay solutions were incubated for 2 hours at room temperature.
Phosphorylated biotinylated peptide is formed in situ as a result of mTOR mediated phosphorylation. The phosphorylated biotinylated peptide that is associated with AlphaScreen Streptavidin donor beads forms a complex with the p70 S6 Kinase (T389) 1A5 Monoclonal Antibody that is associated with Alphascreen Protein A acceptor beads. […] Accordingly, the presence of mTOR kinase activity results in an assay signal. In the presence of an mTOR kinase inhibitor, signal strength is reduced.
What is called IC50 is the midpoint of a concentration-inhibition curve. Consider `CS(=O)(=O)Cc1cc(N2CCOCC2)nc(-c2ccc(NC(=O)Cn3ccnc3)cc2)n1` [Example 5y, 2-imidazol-1-yl-N-[4-[4-(methylsulfonylmethyl)-6-morpholin-4-yl-pyrimidin-2-yl]phenyl]acetamide], for which the IC50 was determined as 2520 nM. For the compound `CS(=O)(=O)Cc1cc(N2CCOCC2)nc(-c2ccc(NC(=O)C(F)F)cc2)n1` [Example 5ar, 2,2-difluoro-N-[4-[4-(methylsulfonylmethyl)-6-morpholin-4-yl-pyrimidin-2-yl]phenyl]acetamide], the IC50 came to 1070 nM. Consider `COCC(=O)Nc1ccc(-c2nc(CS(C)(=O)=O)cc(N3CCOCC3)n2)cc1` [Example 5j, 2-methoxy-N-[4-[4-(methylsulfonylmethyl)-6-morpholin-4-yl-pyrimidin-2-yl]phenyl]acetamide], for which the IC50 was found to be 8270 nM.

For `C[C@H]1COCCN1c1cc(CS(C)(=O)=O)nc(-c2ccc(NC(=O)c3ccno3)cc2)n1` [Example 2, N-[4-[4-[(3S)-3-Methylmorpholin-4-yl]-6-(methylsulfonylmethyl)pyrimidin-2-yl]phenyl]-1,2-oxazole-5-carboxamide], the half-maximal inhibitory concentration (IC50) turned out to be 90.9 nM. With `C[C@H]1COCCN1c1cc(CS(C)(=O)=O)nc(-c2ccc(NC(=O)CO)cc2)n1` [Example 3, 2-Hydroxy-N-[4-[4-[(3S)-3-methylmorpholin-4-yl]-6-(methylsulfonylmethyl)pyrimidin-2-yl]phenyl]acetamide], the IC50 was 238 nM. As to `CS(=O)(=O)Cc1cc(N2CCOCC2)nc(-c2ccc(NC(=O)CCC(F)(F)F)cc2)n1` [Example 5m, 4,4,4-trifluoro-N-[4-[4-(methylsulfonylmethyl)-6-morpholin-4-yl-pyrimidin-2-yl]phenyl]butanamide], the IC50 was found to be 1110 nM.

`CS(=O)(=O)Cc1cc(N2CCOCC2)nc(-c2ccc(NC(=O)c3ccc(C#N)nc3)cc2)n1` [Example 5x, 6-cyano-N-[4-[4-(methylsulfonylmethyl)-6-morpholin-4-yl-pyrimidin-2-yl]phenyl]pyridine-3-carboxamide]: the IC50 was determined as 6200 nM. The result for `CS(=O)(=O)Cc1cc(N2CCOCC2)nc(-c2ccc(NC(=O)C3CCC3)cc2)n1` [Example 5, N-[4-[4-(Methylsulfonylmethyl)-6-morpholin-4-yl-pyrimidin-2-yl]phenyl]cyclobutanecarboxamide] reads 1170 nM. Turning to `C[C@H]1COCCN1c1cc(CS(C)(=O)=O)nc(-c2cccc(NC(=O)c3ccno3)c2)n1` [Example 7a, N-[3-[4-[(3S)-3-methylmorpholin-4-yl]-6-(methylsulfonylmethyl)pyrimidin-2-yl]phenyl]-1,2-oxazole-5-carboxamide], the IC50 is 1980 nM. Consider `CO[C@H](C)C(=O)Nc1ccc(-c2nc(CS(C)(=O)=O)cc(N3CCOCC3)n2)cc1` [Example 5ap, (2R)-2-methoxy-N-[4-[4-(methylsulfonylmethyl)-6-morpholin-4-yl-pyrimidin-2-yl]phenyl]propanamide], for which the IC50 is 32600 nM.

Turning to `CC(=O)Nc1ccc(-c2nc(CS(C)(=O)=O)cc(N3CCOCC3)n2)cc1CO` [Example 1, N-[2-(Hydroxymethyl)-4-[4-(methylsulfonylmethyl)-6-morpholin-4-yl-pyrimidin-2-yl]phenyl]acetamide], the IC50 came out at 164 nM. Regarding `CS(=O)(=O)CC(=O)Nc1ccc(-c2nc(CS(C)(=O)=O)cc(N3CCOCC3)n2)cc1` [Example 5e, 2-methylsulfonyl-N-[4-[4-(methylsulfonylmethyl)-6-morpholin-4-yl-pyrimidin-2-yl]phenyl]acetamide], the IC50 is 1770 nM. Consider `CS(=O)(=O)Cc1cc(N2CCOCC2)nc(-c2ccc(NC(=O)c3ccco3)cc2)n1` [Example 5i, N-[4-[4-(methylsulfonylmethyl)-6-morpholin-4-yl-pyrimidin-2-yl]phenyl]furan-2-carboxamide], for which the 50% inhibitory concentration (IC50) amounted to 1420 nM. Then `CS(=O)(=O)Cc1cc(N2CCOCC2)nc(-c2ccc(NC(=O)C3CC3)cc2)n1` [Example 5n, N-[4-[4-(methylsulfonylmethyl)-6-morpholin-4-yl-pyrimidin-2-yl]phenyl] cyclopropanecarboxamide], with 614 nM; and `CC(=O)NC(C)C(=O)Nc1ccc(-c2nc(CS(C)(=O)=O)cc(N3CCOCC3)n2)cc1` (stereo not drawn) [Example 5d, 2-acetamido-N-[4-[4-(methylsulfonylmethyl)-6-morpholin-4-yl-pyrimidin-2-yl]phenyl]propanamide], with 7170 nM; and `CC(=O)NCCC(=O)Nc1ccc(-c2nc(CS(C)(=O)=O)cc(N3CCOCC3)n2)cc1` [Example 5ad, 3-acetamido-N-[4-[4-(methylsulfonylmethyl)-6-morpholin-4-yl-pyrimidin-2-yl]phenyl]propanamide], with 3990 nM. `Cc1cc(C(=O)Nc2ccc(-c3nc(CS(C)(=O)=O)cc(N4CCOCC4)n3)cc2)n(C)n1` [Example 5af, 2,5-dimethyl-N-[4-[4-(methylsulfonylmethyl)-6-morpholin-4-yl-pyrimidin-2-yl]phenyl]pyrazole-3-carboxamide]: the IC50 was found to be 10000 nM. Consider `CC(C)CC(=O)Nc1ccc(-c2nc(CS(C)(=O)=O)cc(N3CCOCC3)n2)cc1` [Example 5h, 3-methyl-N-[4-[4-(methylsulfonylmethyl)-6-morpholin-4-yl-pyrimidin-2-yl]phenyl]butanamide], for which the half-maximal inhibitory concentration (IC50) was determined as 2580 nM. Take `Cc1ccc(C(=O)Nc2ccc(-c3nc(CS(C)(=O)=O)cc(N4CCOCC4)n3)cc2)n1C` [Example 5z, 1,5-dimethyl-N-[4-[4-(methylsulfonylmethyl)-6-morpholin-4-yl-pyrimidin-2-yl]phenyl]pyrrole-2-carboxamide]: the IC50 came out at 9050 nM.

As for `CC(C)C(=O)Nc1ccc(-c2nc(CS(C)(=O)=O)cc(N3CCOCC3)n2)cc1` [Example 5g, 2-methyl-N-[4-[4-(methylsulfonylmethyl)-6-morpholin-4-yl-pyrimidin-2-yl]phenyl]propanamide], the IC50 was 3670 nM. Take `CCC(=O)Nc1ccc(-c2nc(CS(C)(=O)=O)cc(N3CCOCC3)n2)cc1` [Example 5a, N-[4-[4-(methylsulfonylmethyl)-6-morpholin-4-yl-pyrimidin-2-yl]phenyl]propanamide]: the IC50 was found to be 648 nM. Turning to `CS(=O)(=O)Cc1cc(N2CCOCC2)nc(-c2ccc(NC(=O)c3cccnc3)cc2)n1` [Example 5r, N-[4-[4-(methylsulfonylmethyl)-6-morpholin-4-yl-pyrimidin-2-yl]phenyl]pyridine-3-carboxamide], the half-maximal inhibitory concentration (IC50) is 2760 nM. For `CS(=O)(=O)Cc1cc(N2CCOCC2)nc(-c2ccc(NC(=O)c3c[nH]cn3)cc2)n1` [Example 5f, N-[4-[4-(methylsulfonylmethyl)-6-morpholin-4-yl-pyrimidin-2-yl]phenyl]-1H-imidazole-4-carboxamide], the IC50 turned out to be 966 nM. With `CS(=O)(=O)Cc1cc(N2CCOCC2)nc(-c2ccc(NC(=O)CCC3CC3)cc2)n1` [Example 5aa, 3-cyclopropyl-N-[4-[4-(methylsulfonylmethyl)-6-morpholin-4-yl-pyrimidin-2-yl]phenyl]propanamide], the IC50 amounted to 4990 nM. Regarding `CS(=O)(=O)Cc1cc(N2CCOCC2)nc(-c2ccc(NC(=O)CN3CCOCC3)cc2)n1` [Example 5am, N-[4-[4-(methylsulfonylmethyl)-6-morpholin-4-yl-pyrimidin-2-yl]phenyl]-2-morpholin-4-yl-acetamide], the IC50 came out at 9100 nM. The result for `CS(=O)(=O)Cc1cc(N2CCOCC2)nc(-c2ccc(NC(=O)CCc3c[nH]cn3)cc2)n1` [Example 5ah, 3-(1H-imidazol-4-yl)-N-[4[4-(methylsulfonylmethyl)-6-morpholin-4-yl-pyrimidin-2-yl]phenyl]propanamide] reads 2750 nM.

In the case of `CC(=O)NCC(=O)Nc1ccc(-c2nc(CS(C)(=O)=O)cc(N3CCOCC3)n2)cc1` [Example 5c, N-[[4-[4-(methylsulfonylmethyl)-6-morpholin-4-yl-pyrimidin-2-yl]phenyl]carbamoylmethyl] acetamide], the concentration for half-maximal inhibition (IC50) is 1370 nM. For the compound `CS(=O)(=O)Cc1cc(N2CCOCC2)nc(-c2ccc(NC(=O)CN3CCCC3=O)cc2)n1` [Example 5aj, N-[4-[4-(methylsulfonylmethyl)-6-morpholin-4-yl-pyrimidin-2-yl]phenyl]-2-(2-oxopyrrolidin-1-yl)acetamide], the 50% inhibitory concentration (IC50) is 9700 nM. Turning to `Cc1ccc(C(=O)Nc2ccc(-c3nc(CS(C)(=O)=O)cc(N4CCOCC4)n3)cc2)cn1` [Example 5w, 6-methyl-N-[4-[4-(methylsulfonylmethyl)-6-morpholin-4-yl-pyrimidin-2-yl]phenyl]pyridine-3-carboxamide], the IC50 was determined as 8090 nM. The result for `CS(=O)(=O)Cc1cc(N2CCOCC2)nc(-c2ccc(NC(=O)C3(C(N)=O)CC3)cc2)n1` [Example 5ab, N′-[4-[4-(methylsulfonylmethyl)-6-morpholin-4-yl-pyrimidin-2-yl]phenyl]cyclopropane-1,1-dicarboxamide] reads 6590 nM.

These data come from patent publication US20100261723A1, “TRISUBSTITUTED PYRIMIDINE DERIVATIVES FOR THE TREATMENT OF PROLIFERATIVE DISEASES” (ASTRAZENECA AB, priority 2007, published 2010).
